Reference: patent US10968192B2, “Crystalline solid forms of N-(1-((2-(dimethylamino)ethyl)amino)-2-methyl-1-oxopropan-2-yl)-4-(4-(2-methyl-5-((2S,3R,4R,5S,6R)-3,4,5-trihydroxy-6-(methylthio)tetrahydro-2H-pyran-2-yl)benzyl)phenyl)butanamide and methods of their synthesis” (Lexicon Pharmaceuticals, Inc., priority 2018, dated 2021)
Blank lines part the entries; values can stand above or below the molecule they belong to.

How the values were obtained:
[1] = target: T1, sodium glucose co-transporter type 1 (SGLT1) (Homo sapiens, UniProt P13866); conditions: qualitative statement; see U.S. Pat. No. 9,200,025, Examples 6.39, 6.40; cited from earlier work
T1 sequence (P13866 1-664): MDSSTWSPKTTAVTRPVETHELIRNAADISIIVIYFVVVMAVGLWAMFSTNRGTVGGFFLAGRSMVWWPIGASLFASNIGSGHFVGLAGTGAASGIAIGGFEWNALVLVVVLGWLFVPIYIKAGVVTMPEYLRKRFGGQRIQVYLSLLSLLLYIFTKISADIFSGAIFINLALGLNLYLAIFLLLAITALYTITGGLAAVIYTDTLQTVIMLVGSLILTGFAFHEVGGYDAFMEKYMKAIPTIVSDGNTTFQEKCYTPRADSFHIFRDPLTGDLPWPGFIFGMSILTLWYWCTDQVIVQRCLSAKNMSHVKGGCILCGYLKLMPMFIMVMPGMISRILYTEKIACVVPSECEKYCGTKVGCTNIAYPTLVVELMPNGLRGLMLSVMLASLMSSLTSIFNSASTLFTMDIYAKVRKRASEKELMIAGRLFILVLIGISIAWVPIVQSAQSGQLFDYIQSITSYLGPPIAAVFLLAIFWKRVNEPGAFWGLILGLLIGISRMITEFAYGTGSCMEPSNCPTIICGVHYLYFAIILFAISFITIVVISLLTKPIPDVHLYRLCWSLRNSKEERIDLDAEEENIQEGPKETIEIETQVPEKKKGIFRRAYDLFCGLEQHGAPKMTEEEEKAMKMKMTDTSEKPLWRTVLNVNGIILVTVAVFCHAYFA

[2] = Polymorphism studies of the L-proline co-crystal: solid-form stability upon drying; type: physicochemical
Description: Significant further research directed at discovering useful and stable solid forms of the compound finally led to the discovery of a few crystalline forms of the free base, solvates, and co-crystals. […] Although polymorphism studies led to the identification of eleven different Raman spectroscopic classes of the co-crystal, three were dominated by amorphous material and most were unstable (i.e., lose their crystallinity or convert to other forms) upon drying. […] The suspension was filtered and the wet-cake was dried. […] (DSC peak 147° C.). The solid was used as seeds to prepare 0.7 g more Form II polymorph of the L-proline cocrystal in a similar fashion.

Compound: CS[C@H]1O[C@@H](c2ccc(C)c(Cc3ccc(CCCC(=O)NC(C)(C)C(=O)NCCN(C)C)cc3)c2)[C@H](O)[C@@H](O)[C@@H]1O [Compound I, N-(1-((2-(dimethylamino)ethyl)-amino)-2-methyl-1-oxopropan-2-yl)-4-(4-(2-methyl-5-((2S,3R,4R,5S,6R)-3,4,5-trihydroxy-6-(methylthio)tetrahydro-2H-pyran-2-yl)benzyl)phenyl)butanamide]
inhibition of sodium glucose co-transporter type 1 (SGLT1) [1]: potent inhibitor

solid-form conversion upon drying ([2]; wet cake from ethanol, dried at 50° C.): converted to Form II upon drying
Compound: CS[C@H]1O[C@@H](c2ccc(C)c(Cc3ccc(CCCC(=O)NC(C)(C)C(=O)NCCN(C)C)cc3)c2)[C@H](O)[C@@H](O)[C@@H]1O [Form I, N-(1-((2-(dimethylamino)ethyl)-amino)-2-methyl-1-oxopropan-2-yl)-4-(4-(2-methyl-5-((2S,3R,4R,5S,6R)-3,4,5-trihydroxy-6-(methylthio)tetrahydro-2H-pyran-2-yl)benzyl)phenyl)butanamide L-proline]

Compound: CS[C@H]1O[C@@H](c2ccc(C)c(Cc3ccc(CCCC(=O)NC(C)(C)C(=O)NCCN(C)C)cc3)c2)[C@H](O)[C@@H](O)[C@@H]1O [Form II, N-(1-((2-(dimethylamino)ethyl)-amino)-2-methyl-1-oxopropan-2-yl)-4-(4-(2-methyl-5-((2S,3R,4R,5S,6R)-3,4,5-trihydroxy-6-(methylthio)tetrahydro-2H-pyran-2-yl)benzyl)phenyl)butanamide L-proline]
solid-form stability (retains crystallinity / does not convert to other forms upon drying) ([2]; L-proline co-crystal forms, polymorphism studies): stable enough to be useful in pharmaceutical formulations
